Measurements as given in ChEMBL document CHEMBL3046357, “Inhibitors of biotin biosynthesis as potential herbicides” (2004).

Test system: Arabidopsis thaliana
Test: Herbicidal activity against Arabidopsis thaliana after 3 weeks
Format: functional

Structure (SMILES)	GR50
CC(C)C(N)/C(CCCCCC(=O)O)=N/O.Cl (stereo not given)	>780 ppm
COC(=O)CCCCCC(=O)C(N)C(C)O.Cl (stereo not given)	100 ppm
O=C(O)CCCCCC1CNC(=O)N1 (racemic)	35 ppm
COC(=O)CCCCC/C(CN)=N\O.Cl	53 ppm
CSCCC(N)C(N)CCCCCC(=O)O.Cl.Cl (stereo not given)	0.78 ppm
Cl.NC(CO)C(=O)CCCCCC(=O)O (stereo not given)	100 ppm
CSCC(N)C(=O)CCCCCC(=O)O.Cl (stereo not given)	>780 ppm
CCC1NC(=O)NC1CCCCCC(=O)O (stereo not given)	35 ppm
CSCCC1NC(=O)NC1CCCCCC(=O)O (stereo not given)	>780 ppm
CCC(N)/C(CCCCCC(=O)O)=N/O.Cl (stereo not given)	>780 ppm
COC(=O)CCCCCC(=O)C(N)CS.Cl (stereo not given)	120 ppm
COC(=O)CCCCCC1NC(=S)NC1CCSC (stereo not given)	>780 ppm
CCC(N)C(=O)CCCCCC(=O)O.Cl (stereo not given)	43 ppm
CCC(N)C(N)CCCCCC(=O)O.Cl.Cl (stereo not given)	76 ppm
CC(O)C(N)C(=O)CCCCCC(=O)O.Cl (stereo not given)	250 ppm
Cl.NC(CS)C(=O)CCCCCC(=O)O (stereo not given)	>780 ppm
Cl.NCC(=O)CCCCCC(=O)O	8 ppm
CSCC1NC(=O)NC1CCCCCC(=O)O (stereo not given)	46 ppm
Cl.Cl.NCC(N)CCCCCC(=O)O (stereo not given)	53 ppm
COC(=O)CCCCCC(=O)C(N)CSC.Cl (stereo not given)	250 ppm
CC(C)C(N)C(=O)CCCCCC(=O)O.Cl (stereo not given)	37 ppm
Cl.NC/C(CCCCCC(=O)O)=N/O	40 ppm
CSCCC(N)C(=O)CCCCCC(=O)O.Cl (stereo not given)	>780 ppm
COC(=O)CCCCCC(=O)C(N)CO.Cl (stereo not given)	53 ppm
COC(=O)CCCCCC1NC(=S)NC1CSC (stereo not given)	44 ppm
